Data as given in publication PMC4537050, “A long pentraxin-3-derived pentapeptide for the therapy of FGF8b-driven steroid hormone-regulated cancers” (Oncotarget, 2015).

Key:
[1] = target: T1, FGF8b (Homo sapiens, UniProt P55075); assay: SPR analysis of peptide binding to immobilized FGF8b; design: purchased PeproTech; conditions: for Kd / FGF8b binding (Kd): SPR, immobilized FGF8b, mean ± SEM; for FGF8b binding activity (in words): SPR on the FGF8b-coated sensor chip
T1 sequence (P55075 23-215 isoform P55075-3 limits assumed): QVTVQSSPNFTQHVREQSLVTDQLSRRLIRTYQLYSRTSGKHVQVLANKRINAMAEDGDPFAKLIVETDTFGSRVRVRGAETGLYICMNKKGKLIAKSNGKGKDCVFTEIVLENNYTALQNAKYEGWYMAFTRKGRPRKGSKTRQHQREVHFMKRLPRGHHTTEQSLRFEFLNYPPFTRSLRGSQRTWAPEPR
Procedure: A BIAcore X-100 apparatus (BIAcore Inc., Piscataway, NJ, USA) was used to set up the following experimental models. ARPCA and all the peptides mentioned in the present work were analyzed for their capacity to directly bind to immobilized FGF8b. To this purpose, FGF8b (20 μg/ml in 10 mM sodium acetate, pH 6.0) was allowed to react with a flow cell of a CM5 sensor chip that was previously activated with a mixture of 0.2 M N-ethyl-N′-(3-dimethylaminopropyl)-carbodiimide hydrochloride and 0.05 M N-hydroxysuccinimide (35 μl, flow rate 10 μl/min). After ligand immobilization, matrix neutralization was performed with 1.0 M ethanolamine (pH 8.5) (35 μl, flow rate 10 μl/min) and the activated/deactivated dextran was used as reference (control) system. Increasing concentrations of ARPCA (ranging between 8 μM and 2000 μM) were injected over the FGF8b-coated sensor chip and the response was recorded as a function of time tracking the SPR intensity change upon binding progression. Injection lasted for 4 min (flow rate 30 μl/min) to allow peptide association to immobilized FGF8b and was followed by 10 min of dissociation; each run was performed in HBS and the sensor chip was regenerated with 10 mM NaOH. […] Binding isotherm points were fitted with the Langmuir equation for monovalent binding. This allowed to evaluate the mass surface dissociation constant, Kd, and the scaling parameter that relates the SPR signal with the extent of binding, as the free parameters of the fitting. The errors on these parameters were assigned as a result of the fitting algorithm (95% confidence bounds). The best-fitting procedure was performed with the SigmaPlot 11.0 software package (Systat Software Inc.). Others FGFs were dissolved in 10mM sodium acetate at optimal pH, immobilized on CM5 sensorchips and tested for their capacity to bind ARPCA as described above.

[2] = tested on: HUVECs; assay: HUVEC proliferation in response to FGF8b; type: cell-based, human; conditions: 30 ng/ml FGF8b, 48 h, concentrations as high as 300 μM
Procedure: (§1) HUVECs were seeded at 18000 cells/cm^2 in medium containing 2.5% FBS and stimulated with 30 ng/ml FGF8b in the absence or presence of increasing concentrations of ARPCA or ARPVA. S115 cells were seeded at 15000 cells/cm^2 in medium containing 4% hormone-deprived dextran-coated charcoal-stripped heat inactivated FBS, followed by 24 h serum starvation in 1:1 mixture of serum-free Ham's F12 and DMEM. Cells were stimulated for 48 h with 30 ng/ml FGF8b or 10 nM DHT in the presence or absence of different concentrations of ARPCA or ARPVA (as specified in the corresponding figures). Viable cell counts were obtained by the counting function of the MACSQuant® Analyzer (Miltenyi Biotec, Bergisch-Gladbach, Germany, EU).

[3] = tested on: chick embryo chorioallantoic membrane (CAM); assay: Chick embryo CAM assay with growth factor alginate implants; type: in vivo; conditions: 4.5 pmoles FGF8b/plug; ARPCA 80 or 140 pmoles, ARPVA 140 pmoles; vessels counted at day 14
Procedure: (§2) Alginate plugs containing vehicle, FGF8b (4.5 pmoles/embryo), VEGF-A (4.5 pmoles/embryo) or S115 cells (2.5×10^4/embryo) in the absence or presence of ARPCA (80 or 140 pmoles/embryo) or ARPVA (140 pmoles/embryo) were placed on the CAM of fertilized white leghorn chicken eggs at day 11 of incubation. At day 14, newly formed blood microvessels converging toward the implant were counted by two observers in a double-blind fashion at 5x magnification under a stereomicroscope (STEMI-SR, x2/0.12; Zeiss) as described.

[4] = tested on: S115 cells; assay: S115 cell proliferation assay; type: cell-based, mouse; conditions: 30 ng/ml FGF8b or 10 nM DHT, 48 h, viable cell counting
Procedure: as §1

[5] = tested on: S115 cells grafted onto the chick embryo CAM; assay: CAM assay with DHT-treated S115 cell grafts; type: in vivo; conditions: 2.5 × 10^4 cells/embryo; ARPCA 80 or 140 pmoles/embryo, ARPVA 140 pmoles/embryo; day 14
Procedure: as §2

Substance | Kd [1] [mM] | FGF8b binding activity (in words) [1] | further results
Ac-ARPMA-NH2 [Ac-ARPMA-NH2] | > 3 | activity was lost | –
Ac-ARPSA-NH2 [Ac-ARPSA-NH2] | – | activity was lost | FGF8b binding (Kd) [1]: nb
Ac-ARPVA-NH2 [Cys4-replaced ARPCA pentapeptide mutant used as a negative control, reference compound] | – | activity was lost | effect on HUVEC proliferation in response to FGF8b (in words) [2]: no significant effect; angiogenic response elicited by FGF8b in the CAM [3]: No inhibitory effect; mitogenic response of S115 cells to FGF8b or DHT [4]: ineffective; neovascular response elicited by DHT-pretreated S115 cells on the CAM [5]: no effect; FGF8b binding (Kd) [1]: nb
Ac-GRPCG-NH2 [Ac-GRPCG-NH2] | > 3 | dramatically reduced | –

Continued, in another order:

Kd [1] [mM] | FGF8b binding activity (in words) [1] | Substance | further results
> 3 | – | Ac-APCRA-NH2 [Ac-APCRA-NH2] | –
> 3 | activity was lost | Ac-ARACA-NH2 [Ac-ARACA-NH2] | –
> 3 | activity was lost | Ac-ARGCA-NH2 [Ac-ARGCA-NH2] | –
1.9 ± 0.2 | dramatically reduced | Ac-ARPCG-NH2 [Ac-ARPCG-NH2] | –
2.9 ± 0.55 | dramatically reduced | H-ARPCA-NH2 [H-ARPCA-NH2] | –
